Test results taken from PMC7307906, “Macrocyclic Modalities Combining Peptide Epitopes and Natural Product Fragments” (Journal of the American Chemical Society, 2020).
“And” between values parts separate entries of the source, which are not always exact repeats. Identical values can stand only once. Like-named read-outs stand apart in the source and are kept apart here.

Assays:
human MC1R [1] = molecular target: T1, human MC1R (Homo sapiens, UniProt Q01726); assay: Melanocortin receptor radioligand binding (SPA, [125I]-NDP-α-MSH displacement), MC1R; settings: competitive binding, mean (± SEM) of at least three independent experiments, read-out: IC50 hMC1R binding
T1 construct: expressed in transfected cells
T1 sequence (Q01726 whole entry): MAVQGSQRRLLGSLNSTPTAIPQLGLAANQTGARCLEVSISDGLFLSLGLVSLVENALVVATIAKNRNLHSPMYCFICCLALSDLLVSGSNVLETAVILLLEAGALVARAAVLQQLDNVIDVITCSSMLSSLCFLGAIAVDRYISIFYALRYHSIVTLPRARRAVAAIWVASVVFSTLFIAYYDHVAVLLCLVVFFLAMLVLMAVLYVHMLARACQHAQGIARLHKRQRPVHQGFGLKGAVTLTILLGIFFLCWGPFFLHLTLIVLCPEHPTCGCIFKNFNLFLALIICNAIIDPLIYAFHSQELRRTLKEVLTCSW

human MC3R [2] = molecular target: T2, human MC3R (Homo sapiens, UniProt P41968); assay: Melanocortin receptor radioligand binding (SPA, [125I]-NDP-α-MSH displacement), MC3R; settings: competitive binding, mean (± SEM) of at least three independent experiments, read-out: IC50 hMC3R binding
T2 construct: expressed in transfected cells
T2 sequence (P41968 whole entry): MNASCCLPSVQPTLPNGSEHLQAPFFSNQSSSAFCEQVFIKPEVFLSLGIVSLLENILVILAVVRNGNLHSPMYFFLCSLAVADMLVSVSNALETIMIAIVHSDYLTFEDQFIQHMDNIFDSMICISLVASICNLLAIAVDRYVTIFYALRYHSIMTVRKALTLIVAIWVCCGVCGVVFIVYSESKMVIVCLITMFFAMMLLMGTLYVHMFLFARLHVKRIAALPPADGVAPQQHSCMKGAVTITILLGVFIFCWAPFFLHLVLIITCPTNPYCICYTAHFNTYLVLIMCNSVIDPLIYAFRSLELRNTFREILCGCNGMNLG

human MC4R [3] = molecular target: T3, human MC4R (Homo sapiens, UniProt P32245); assay: Melanocortin receptor radioligand binding (SPA, [125I]-NDP-α-MSH displacement), MC4R; settings: competitive binding, mean (± SEM) of at least three independent experiments, read-out: IC50 hMC4R binding
T3 construct: expressed in transfected cells
T3 sequence (P32245 whole entry): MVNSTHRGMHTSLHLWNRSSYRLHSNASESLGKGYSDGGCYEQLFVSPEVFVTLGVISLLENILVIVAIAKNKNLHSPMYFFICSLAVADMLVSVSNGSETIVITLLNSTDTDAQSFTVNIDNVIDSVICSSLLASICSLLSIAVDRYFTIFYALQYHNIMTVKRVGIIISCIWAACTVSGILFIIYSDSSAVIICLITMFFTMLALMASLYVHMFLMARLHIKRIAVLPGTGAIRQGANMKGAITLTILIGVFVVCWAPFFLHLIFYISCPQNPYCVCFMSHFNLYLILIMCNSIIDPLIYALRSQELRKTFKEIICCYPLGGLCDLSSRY

human MC5R = molecular target: T4, human MC5R (Homo sapiens, UniProt P33032); assay: Melanocortin receptor radioligand binding (SPA, [125I]-NDP-α-MSH displacement), MC5R; settings: competitive binding, [125I]-NDP-α-MSH; mean (± SEM) of at least three independent experiments; read-out: IC50 hMC5R binding
T4 construct: expressed in transfected cells; host or cells: HEK293-6E suspension cells, transient expression; membranes
T4 sequence (P33032 whole entry): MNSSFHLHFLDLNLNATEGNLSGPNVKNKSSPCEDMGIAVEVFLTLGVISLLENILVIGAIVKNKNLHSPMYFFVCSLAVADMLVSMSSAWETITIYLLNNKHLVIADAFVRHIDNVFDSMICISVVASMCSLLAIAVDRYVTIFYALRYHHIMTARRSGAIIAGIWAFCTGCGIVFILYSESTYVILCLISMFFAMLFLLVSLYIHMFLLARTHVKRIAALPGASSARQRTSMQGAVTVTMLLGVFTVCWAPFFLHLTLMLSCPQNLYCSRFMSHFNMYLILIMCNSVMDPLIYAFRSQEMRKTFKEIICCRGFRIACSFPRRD

human MC1R [4] = molecular target: T1, human MC1R; assay: cAMP assay (LANCE) in T-Rex-293 cells expressing MC1R; format: cell-based; settings: for Emax: T-REx-293, read-out: % Effect hMC1R cAMP; for EC50: cAMP assay, mean (± SEM) of at least three independent experiments, read-out: EC50 hMC1R cAMP
human MC3R [5] = molecular target: T2, human MC3R; assay: cAMP assay (LANCE) in T-Rex-293 cells expressing MC3R; format: cell-based; settings: for EC50: cAMP assay, mean (± SEM) of at least three independent experiments, read-out: EC50 hMC3R cAMP
human MC4R [6] = molecular target: T3, human MC4R; assay: cAMP assay (LANCE) in T-Rex-293 cells expressing MC4R; format: cell-based; settings: for EC50: cAMP assay, mean (± SEM) of at least three independent experiments, read-out: EC50 hMC4R cAMP
[7] = resin
[8] = Emax (curve plateau), relative to NDP-α-MSH, NA = No Activity detected, threshold 20% effect
[9] = other bond, Fmoc removal, intramolecular imine, N-phenylmaleimide 1,3-dipolar cycloaddition, 4 steps
[10] = other bond, Fmoc removal (RP-03), imine cyclization/N-phenylmaleimide 1,3-dipolar cycloaddition (RP-04), 3 steps
[11] = other bond, imine formation, then N-phenylmaleimide cycloaddition (RP-04), with chain assembly
[12] = other bond, N-phenylmaleimide (RP-04; imine cyclization/1,3-dipolar cycloaddition), 4 steps

C[C@@H]1NC(=O)[C@H](CC(N)=O)NC(=O)[C@H](Cc2ccccc2)NC(=O)[C@H](Cc2ccccc2)NC(=O)[C@H](CCCNC(=N)N)NC(=O)[C@H](Cc2ccccc2)N(C)C(=O)[C@@H]2N[C@H](c3ccc(cc3)C(=O)NCCCC[C@@H](C(=O)N[C@@H](Cc3ccc(O)cc3)C(N)=O)NC(=O)[C@H](Cc3ccccc3)NC1=O)[C@@H]1C(=O)N(C)C(=O)[C@@H]12 [B1-major, [ I-FRFFNAFK ]Y]
IC50 (human MC1R [1]): 41 ± 2 µM
IC50 (human MC3R [2]): 32 ± 2 µM
IC50 (human MC4R [3]): 34 ± 3 µM
IC50 (human MC5R): 16 ± 2 µM
Emax (human MC1R [4]): 37%
EC50 (human MC1R [4]): 1.8 ± 1.2 µM
EC50 (human MC3R [5]): > 100 µM
EC50 (human MC4R [6]): > 100 µM

C[C@@H]1NC(=O)[C@H](CC(N)=O)NC(=O)[C@H](Cc2ccccc2)NC(=O)[C@H](Cc2ccccc2)NC(=O)[C@H](CCCNC(=N)N)NC(=O)[C@H](Cc2ccccc2)N(C)C(=O)[C@H]2N[C@@H](c3ccc(cc3)C(=O)NCCCC[C@@H](C(=O)NCC(N)=O)NC(=O)[C@H](Cc3ccccc3)NC1=O)[C@H]1C(=O)N(C)C(=O)[C@H]12 [B2-minor, [ I-FRFFNAFK ]G]
IC50 (human MC1R [1]): > 100 µM
IC50 (human MC3R [2]): > 100 µM
IC50 (human MC4R [3]): 96 ± 4 µM
IC50 (human MC5R): 31 ± 0.4 µM
Emax (human MC1R [4]): 39%
EC50 (human MC1R [4]): 10 ± 2 µM
EC50 (human MC3R [5]): > 100 µM
EC50 (human MC4R [6]): > 100 µM

C[C@@H]1NC(=O)[C@H](CC(N)=O)NC(=O)[C@H](Cc2ccccc2)NC(=O)[C@H](Cc2ccccc2)NC(=O)[C@H](CCCNC(=N)N)NC(=O)[C@H](Cc2ccccc2)N(C)C(=O)[C@H]2N[C@@H](c3ccc(cc3)C(=O)NCCCC[C@@H](C(=O)NCC(N)=O)NC(=O)[C@H](Cc3ccccc3)NC1=O)[C@H]1C(=O)N(c3ccccc3)C(=O)[C@H]12 [B3-major*, [ II-FRFFNAFK]G]
IC50 (human MC1R [1]): > 10 µM
IC50 (human MC3R [2]): > 10 µM
IC50 (human MC4R [3]): > 10 µM
IC50 (human MC5R): > 10 µM
EC50 (human MC1R [4]): > 10 µM
EC50 (human MC3R [5]): > 10 µM
EC50 (human MC4R [6]): > 10 µM

CCCC[C@H](NC(C)=O)C(=O)N[C@H]1CC(=O)NCCCC[C@@H](C(=O)O)NC(=O)[C@H](Cc2c[nH]c3ccccc23)NC(=O)[C@H](CCCNC(=N)N)NC(=O)[C@@H](Cc2ccccc2)NC(=O)[C@H](Cc2c[nH]cn2)NC1=O [Bremelanotid (BreMT), Bremelanotid, reference compound]
% Effect hMC1R cAMP (human MC1R [4]; [8]): 97%

C[C@@H]1NC(=O)[C@H](CC(N)=O)NC(=O)[C@@H](Cc2ccccc2)NC(=O)[C@@H](Cc2ccccc2)NC(=O)[C@H](CCCNC(=N)N)NC(=O)[C@H](Cc2ccccc2)N(C)C(=O)[C@@H]2N[C@H](c3ccc(cc3)C(=O)NCCCC[C@@H](C(=O)N[C@@H](Cc3ccc(O)cc3)C(N)=O)NC(=O)[C@H](Cc3ccccc3)NC1=O)[C@@H]1C(=O)N(C)C(=O)[C@@H]12 [C1-major, [I-FRffNAFK ]Y]
IC50 (human MC1R [1]): 23 ± 1 µM
IC50 (human MC3R [2]): 36 ± 1 µM
IC50 (human MC4R [3]): 26 ± 2 µM
IC50 (human MC5R): 13 ± 1 µM
Emax (human MC1R [4]): 47%
EC50 (human MC1R [4]): 1.8 ± 0.3 µM
EC50 (human MC3R [5]): > 100 µM
EC50 (human MC4R [6]): > 100 µM

C[C@@H]1NC(=O)[C@H](CC(N)=O)NC(=O)[C@@H](Cc2ccccc2)NC(=O)[C@@H](Cc2ccccc2)NC(=O)[C@H](CCCNC(=N)N)NC(=O)[C@H](Cc2ccccc2)N(C)C(=O)[C@@H]2N[C@H](c3ccc(cc3)C(=O)NCCCC[C@@H](C(=O)N[C@@H](Cc3ccc(O)cc3)C(N)=O)NC(=O)[C@H](Cc3ccccc3)NC1=O)[C@]1(C(=O)Nc3ccccc31)[C@H]2c1ccccc1 [C2-major, [X-FRffNAFK ]Y]
Emax (human MC1R [4]): 57%

C[C@@H]1NC(=O)[C@H](CC(N)=O)NC(=O)[C@@H](Cc2ccccc2)NC(=O)[C@@H](Cc2ccccc2)NC(=O)[C@H](CCCNC(=N)N)NC(=O)[C@H](Cc2ccccc2)N(C)C(=O)C2NC(c3ccc(cc3)C(=O)NCCCC[C@@H](C(=O)N[C@@H](Cc3ccc(O)cc3)C(N)=O)NC(=O)[C@H](Cc3ccccc3)NC1=O)C1(C(=O)Nc3ccccc31)C2c1ccccc1 (some centres unmarked) [C2-minor, [X-FRffNAFK ]Y]
Emax (human MC1R [4]): 36%

C[C@@H]1NC(=O)[C@H](CC(N)=O)NC(=O)[C@@H](Cc2ccccc2)NC(=O)[C@@H](Cc2ccccc2)NC(=O)[C@H](CCCNC(=N)N)NC(=O)[C@H](Cc2ccccc2)N(C)C(=O)[C@@H]2N[C@H](c3ccc(cc3)C(=O)NCCCC[C@@H](C(=O)NCC(N)=O)NC(=O)[C@H](Cc3ccccc3)NC1=O)[C@@H]1C(=O)N(C)C(=O)[C@@H]12 [C4-major, [I-FRffNAFK ]G]
IC50 (human MC1R [1]): 88 ± 1 µM
IC50 (human MC3R [2]): > 100 µM
IC50 (human MC4R [3]): 72 ± 4 µM
IC50 (human MC5R): 36 ± 3 µM
Emax (human MC1R [4]): 56%
EC50 (human MC1R [4]): 2.2 ± 1 µM
EC50 (human MC3R [5]): > 100 µM
EC50 (human MC4R [6]): > 100 µM

CN1C(=O)[C@@H]2N[C@H](c3ccc(cc3)C(=O)NCCCC[C@@H](C(=O)N[C@@H](Cc3ccc(O)cc3)C(N)=O)NC(=O)[C@H](Cc3ccccc3)NC(=O)[C@H](Cc3ccccc3)NC(=O)[C@H](CCCNC(=N)N)NC(=O)[C@@H]1Cc1ccccc1)[C@@H]1C(=O)N(c3ccccc3)C(=O)[C@@H]12 [N1-minor*, [II-FRFFK ]Y]
Emax (human MC1R [4]): 56%

CN1C(=O)[C@@H]2N[C@H](c3ccc(cc3)C(=O)NCCCC[C@@H](C(=O)NCC(N)=O)NC(=O)[C@H](Cc3ccccc3)NC(=O)[C@H](Cc3ccccc3)NC(=O)[C@H](CCCNC(=N)N)NC(=O)[C@@H]1Cc1ccccc1)[C@@H]1C(=O)N(c3ccccc3)C(=O)[C@@H]12 [N2-minor*, [II-FRFFK ]G]
Emax (human MC1R [4]): 36%

CN1C(=O)[C@@H]2N[C@H](c3ccc(cc3)C(=O)NCCCC[C@@H](C(=O)N[C@@H](Cc3ccc(O)cc3)C(N)=O)NC(=O)[C@@H](Cc3ccccc3)NC(=O)[C@@H](Cc3ccccc3)NC(=O)[C@H](CCCNC(=N)N)NC(=O)[C@@H]1Cc1ccccc1)[C@@H]1C(=O)N(c3ccccc3)C(=O)[C@@H]12 [O2-major, [II-FRffK ]Y]
Emax (human MC1R [4]): 62%

CC(=O)N[C@@H](CCCNC(=N)N)C(=O)N[C@H]1CSSC[C@@H](C(N)=O)NC(=O)[C@H](Cc2c[nH]c3ccccc23)NC(=O)[C@H](CCCNC(=N)N)NC(=O)[C@@H](Cc2ccccc2)NC(=O)[C@H](Cc2c[nH]cn2)NC(=O)[C@@H](C)NC1=O [RM493, reference compound]
IC50 (human MC5R): 1.8 ± 0.3 µM
Emax (human MC1R [4]): 96%
% Effect hMC3R cAMP (human MC3R [5]; [8]): 98%
% Effect hMC4R cAMP (human MC4R [6]; [8]): 100%

[N-Me-fused-di-pyrrolidine-NMefDINNNK]G
ring closure, yield after HPLC ([7]; other bond, Fmoc removal, intramolecular imine, N-methylmaleimide 1,3-dipolar cycloaddition, 4 steps): 5%

[N-Ph-fused-di-pyrrolidine-NMeFALFPGFK]G, A2
ring closure, yield after HPLC ([7]; other bond, 37-membered ring, CH(OMe)3/Et3N, then 7/LiBr/Et3N, DMF, THF, 25.0 °C, with chain assembly): 10%

[N-Ph-fused-di-pyrrolidine-NMeFDINNNDap]G
ring closure, yield after HPLC [7, 9]: 2%

[N-Ph-fused-di-pyrrolidine-NMeFDINNNK]G
ring closure, yield after HPLC ([7]; other bond, Fmoc removal (RP-03), imine cyclization/1,3-dipolar cycloaddition, N-phenylmaleimide (RP-04), 4 steps): 5%

[N-Ph-fused-di-pyrrolidine-NMeFRANK]G
ring closure, yield after HPLC [7, 10]: 3%

[N-Ph-fused-di-pyrrolidine-NMeFRFFK], N3
ring closure, yield after HPLC [7, 11]: 2%

[N-Ph-fused-di-pyrrolidine-NMeFRFFK]G, N2
ring closure, yield after HPLC [7, 11]: 2% and 3%

[N-Ph-fused-di-pyrrolidine-NMeFRFFK]Y, N1
ring closure, yield after HPLC ([7]; other bond, imine formation, then N-phenylmaleimide cycloaddition (RP-04), 4 steps): 16% and 10%

[N-Ph-fused-di-pyrrolidine-NMeFRFFNAK]Y
ring closure, yield after HPLC [7, 12]: 2%

[N-Ph-fused-di-pyrrolidine-NMeFRffK]Y, O2
ring closure, yield after HPLC [7, 11]: 2%

[N-Ph-fused-di-pyrrolidine-NMeFRffNK]G
ring closure, yield after HPLC [7, 10]: 1%

[N-Ph-fused-di-pyrrolidine-NMeFRffNK]Y
ring closure, yield after HPLC ([7]; amide bond, 31-membered ring, 3 steps): 2%

[N-Ph-fused-di-pyrrolidine-NMeVDINNNK]G
ring closure, yield after HPLC [7, 9]: 2% and 4%

[N-Ph-fused-di-pyrrolidine-NMeVINNNK]G
ring closure, yield after HPLC [7, 12]: 7%

[Ph-pyrrolidinyl-spirooxindole-NMeFRffNAK]G
ring closure, yield after HPLC ([7]; other bond, (E)-3-benzylidene-indolin-2-one (RP-04; imine cyclization/1,3-dipolar cycloaddition), 4 steps): 5%

[pyrrolidine-NMeFDINNNK]G
ring closure, yield after HPLC ([7]; other bond, Fmoc removal (RP-03), imine cyclization/1,3-dipolar cycloaddition, dimethyl maleate (RP-04), 4 steps): 6% and 7%
